Experimental data: ChEMBL document CHEMBL3885881, “DrugMatrix”

Species on record: Rattus norvegicus
Test: DrugMatrix - Regimen: Daily Repeat
Assay type: toxicity, organism-based, Sprague-Dawley
Parameters: regimen Daily Repeat, gender Male, age 6-8 weeks
Conditions: in vivo, po, route oral GAVAGE, vehicle 100 % WATER; for ABSOLUTE BASOPHIL / ABSOLUTE EOSINOPHIL / ABSOLUTE LYMPHOCYTE / ABSOLUTE MONOCYTE / ABSOLUTE SEGMENTED NEUTROPHIL / BASOPHIL / EOSINOPHIL / ERYTHROCYTE COUNT / HEMATOCRIT / HEMOGLOBIN / LEUKOCYTE COUNT / LYMPHOCYTE / MEAN CORPUSCULAR HEMOGLOBIN / MEAN CORPUSCULAR HEMOGLOBIN CONCENTRATION / MEAN CORPUSCULAR VOLUME / MONOCYTE / NEUTROPHIL / NUCLEATED RED BLOOD CELLS / PLATELET COUNT: tissue Blood; for ALANINE AMINOTRANSFERASE / ALBUMIN / ALKALINE PHOSPHATASE / ASPARTATE AMINOTRANSFERASE / BLOOD UREA NITROGEN / CARBON DIOXIDE / CHLORIDE / CHOLESTEROL / CREATINE PHOSPHOKINASE / CREATININE / GLUCOSE / LACTATE DEHYDROGENASE / LIPASE / PHOSPHORUS / POTASSIUM / SODIUM / TOTAL BILIRUBIN / TOTAL PROTEIN / URIC ACID: tissue Plasma
[1] = 100 mg/kg, 120 h, dose level Low, time 5 day
[2] = 852 mg/kg, 72 h, dose level High, time 3 day
[3] = 852 mg/kg, 120 h, dose level High, time 5 day

Q: With CC(C)(S)[C@@H](N)C(=O)O [PENICILLAMINE] as the molecule, how does the “ABSOLUTE BASOPHIL” value [1] read?
A: 0 CELLS/uL

Q: And the “ABSOLUTE EOSINOPHIL” value [1]?
A: 0 CELLS/uL

Q: What about the “ABSOLUTE LYMPHOCYTE” value [1] of the same molecule?
A: 6617.67 CELLS/uL

Q: What about the “ABSOLUTE MONOCYTE” value [1] of the same molecule?
A: 110.33 CELLS/uL

Q: What about the “ABSOLUTE SEGMENTED NEUTROPHIL” value [1] of the same molecule?
A: 338.67 CELLS/uL

Q: What about the BASOPHIL [1] of the same molecule?
A: 0%

Q: What about the EOSINOPHIL [1] of the same molecule?
A: 0%

Q: What about the “ERYTHROCYTE COUNT” value [1] of the same molecule?
A: 5.47 x10E6/uL

Q: And the HEMATOCRIT [1]?
A: 34.93%

Q: What about the HEMOGLOBIN [1] of the same molecule?
A: 13.8 G/DL

Q: And the “LEUKOCYTE COUNT” value [1]?
A: 7.07 x10E3/uL

Q: What about the LYMPHOCYTE [1] of the same molecule?
A: 93.33%

Q: And the “MEAN CORPUSCULAR HEMOGLOBIN” value [1]?
A: 25.27 pg

Q: What about the “MEAN CORPUSCULAR HEMOGLOBIN CONCENTRATION” value [1] of the same molecule?
A: 39.57 G/DL

Q: And the “MEAN CORPUSCULAR VOLUME” value [1]?
A: 63.93 fL

Q: And the MONOCYTE [1]?
A: 1.67%

Q: What about the NEUTROPHIL [1] of the same molecule?
A: 5%

Q: And the “NUCLEATED RED BLOOD CELLS” value [1]?
A: 0 /100WBC

Q: And the “PLATELET COUNT” value [1]?
A: 1075.33 x10E3/uL

Q: What about the “ALANINE AMINOTRANSFERASE” value [1] of the same molecule?
A: 51.33 u/L

Q: What about the ALBUMIN [1] of the same molecule?
A: 4.07 G/DL

Q: What about the “ALKALINE PHOSPHATASE” value [1] of the same molecule?
A: 310.33 u/L

Q: And the “ASPARTATE AMINOTRANSFERASE” value [1]?
A: 74.33 u/L

Q: And the “BLOOD UREA NITROGEN” value [1]?
A: 13.67 mg/dL

Q: What about the “CARBON DIOXIDE” value [1] of the same molecule?
A: 34 mmol/L

Q: And the CHLORIDE [1]?
A: 99.67 MEQ/L

Q: And the CHOLESTEROL [1]?
A: 68.67 mg/dL

Q: And the “CREATINE PHOSPHOKINASE” value [1]?
A: 197.67 u/L

Q: What about the CREATININE [1] of the same molecule?
A: 0.13 mg/dL

Q: And the GLUCOSE [1]?
A: 152.67 mg/dL

Q: And the “LACTATE DEHYDROGENASE” value [1]?
A: 129 u/L

Q: And the LIPASE [1]?
A: 9.67 u/L

Q: And the PHOSPHORUS [1]?
A: 10.77 mg/dL

Q: What about the POTASSIUM [1] of the same molecule?
A: 6.13 MEQ/L

Q: And the SODIUM [1]?
A: 144.33 MEQ/L

Q: What about the “TOTAL BILIRUBIN” value [1] of the same molecule?
A: 0.17 mg/dL

Q: And the “TOTAL PROTEIN” value [1]?
A: 5.83 G/DL

Q: And the “URIC ACID” value [1]?
A: 1.17 mg/dL

Q: What about the “ABSOLUTE BASOPHIL” value [2] of the same molecule?
A: 0 CELLS/uL

Q: What about the “ABSOLUTE EOSINOPHIL” value [2] of the same molecule?
A: 0 CELLS/uL

Q: What about the “ABSOLUTE LYMPHOCYTE” value [2] of the same molecule?
A: 6326 CELLS/uL

Q: What about the “ABSOLUTE MONOCYTE” value [2] of the same molecule?
A: 89.33 CELLS/uL

Q: What about the “ABSOLUTE SEGMENTED NEUTROPHIL” value [2] of the same molecule?
A: 351.33 CELLS/uL

Q: What about the BASOPHIL [2] of the same molecule?
A: 0%

Q: What about the EOSINOPHIL [2] of the same molecule?
A: 0%

Q: What about the “ERYTHROCYTE COUNT” value [2] of the same molecule?
A: 5.64 x10E6/uL

Q: What about the HEMATOCRIT [2] of the same molecule?
A: 34.8%

Q: What about the HEMOGLOBIN [2] of the same molecule?
A: 13.1 G/DL

Q: And the “LEUKOCYTE COUNT” value [2]?
A: 6.77 x10E3/uL

Q: What about the LYMPHOCYTE [2] of the same molecule?
A: 93.67%

Q: And the “MEAN CORPUSCULAR HEMOGLOBIN” value [2]?
A: 23.23 pg

Q: What about the “MEAN CORPUSCULAR HEMOGLOBIN CONCENTRATION” value [2] of the same molecule?
A: 37.67 G/DL

Q: What about the “MEAN CORPUSCULAR VOLUME” value [2] of the same molecule?
A: 61.73 fL

Q: And the MONOCYTE [2]?
A: 1.33%

Q: What about the NEUTROPHIL [2] of the same molecule?
A: 5%

Q: What about the “NUCLEATED RED BLOOD CELLS” value [2] of the same molecule?
A: 0 /100WBC

Q: And the “PLATELET COUNT” value [2]?
A: 1143.33 x10E3/uL

Q: And the “ALANINE AMINOTRANSFERASE” value [2]?
A: 54.33 u/L

Q: What about the ALBUMIN [2] of the same molecule?
A: 4.2 G/DL

Q: And the “ALKALINE PHOSPHATASE” value [2]?
A: 349 u/L

Q: What about the “ASPARTATE AMINOTRANSFERASE” value [2] of the same molecule?
A: 71.33 u/L

Q: What about the “BLOOD UREA NITROGEN” value [2] of the same molecule?
A: 14 mg/dL

Q: What about the “CARBON DIOXIDE” value [2] of the same molecule?
A: 30.33 mmol/L

Q: What about the CHLORIDE [2] of the same molecule?
A: 102.67 MEQ/L

Q: And the CHOLESTEROL [2]?
A: 88.33 mg/dL

Q: What about the “CREATINE PHOSPHOKINASE” value [2] of the same molecule?
A: 242 u/L

Q: And the CREATININE [2]?
A: 0.12 mg/dL

Q: And the GLUCOSE [2]?
A: 145.67 mg/dL

Q: What about the “LACTATE DEHYDROGENASE” value [2] of the same molecule?
A: 117.67 u/L

Q: What about the LIPASE [2] of the same molecule?
A: 10 u/L

Q: What about the PHOSPHORUS [2] of the same molecule?
A: 9.27 mg/dL

Q: What about the POTASSIUM [2] of the same molecule?
A: 5.88 MEQ/L

Q: What about the SODIUM [2] of the same molecule?
A: 147.53 MEQ/L

Q: What about the “TOTAL BILIRUBIN” value [2] of the same molecule?
A: 0.17 mg/dL

Q: And the “TOTAL PROTEIN” value [2]?
A: 6.2 G/DL

Q: And the “URIC ACID” value [2]?
A: 0.87 mg/dL

Q: What about the “ABSOLUTE BASOPHIL” value [3] of the same molecule?
A: 0 CELLS/uL

Q: What about the “ABSOLUTE EOSINOPHIL” value [3] of the same molecule?
A: 0 CELLS/uL

Q: And the “ABSOLUTE LYMPHOCYTE” value [3]?
A: 6605.67 CELLS/uL

Q: What about the “ABSOLUTE MONOCYTE” value [3] of the same molecule?
A: 23.67 CELLS/uL

Q: What about the “ABSOLUTE SEGMENTED NEUTROPHIL” value [3] of the same molecule?
A: 604 CELLS/uL

Q: And the BASOPHIL [3]?
A: 0%

Q: What about the EOSINOPHIL [3] of the same molecule?
A: 0%

Q: And the “ERYTHROCYTE COUNT” value [3]?
A: 5.48 x10E6/uL

Q: What about the HEMATOCRIT [3] of the same molecule?
A: 33.73%

Q: And the HEMOGLOBIN [3]?
A: 13.27 G/DL

Q: What about the “LEUKOCYTE COUNT” value [3] of the same molecule?
A: 7.23 x10E3/uL

Q: And the LYMPHOCYTE [3]?
A: 91.33%

Q: What about the “MEAN CORPUSCULAR HEMOGLOBIN” value [3] of the same molecule?
A: 24.23 pg

Q: And the “MEAN CORPUSCULAR HEMOGLOBIN CONCENTRATION” value [3]?
A: 39.33 G/DL

Q: And the “MEAN CORPUSCULAR VOLUME” value [3]?
A: 61.63 fL

Q: And the MONOCYTE [3]?
A: 0.33%

Q: What about the NEUTROPHIL [3] of the same molecule?
A: 8.33%

Q: What about the “NUCLEATED RED BLOOD CELLS” value [3] of the same molecule?
A: 0 /100WBC

Q: And the “PLATELET COUNT” value [3]?
A: 1213.67 x10E3/uL

Q: And the “ALANINE AMINOTRANSFERASE” value [3]?
A: 35 u/L

Q: And the ALBUMIN [3]?
A: 4.23 G/DL

Q: And the “ALKALINE PHOSPHATASE” value [3]?
A: 283.33 u/L

Q: What about the “ASPARTATE AMINOTRANSFERASE” value [3] of the same molecule?
A: 59.33 u/L

Q: What about the “BLOOD UREA NITROGEN” value [3] of the same molecule?
A: 13.33 mg/dL

Q: And the “CARBON DIOXIDE” value [3]?
A: 33.33 mmol/L

Q: What about the CHLORIDE [3] of the same molecule?
A: 99.67 MEQ/L

Q: And the CHOLESTEROL [3]?
A: 61.33 mg/dL

Q: What about the “CREATINE PHOSPHOKINASE” value [3] of the same molecule?
A: 202.33 u/L

Q: And the CREATININE [3]?
A: 0.12 mg/dL

Q: And the GLUCOSE [3]?
A: 131.67 mg/dL

Q: What about the “LACTATE DEHYDROGENASE” value [3] of the same molecule?
A: 133 u/L

Q: And the LIPASE [3]?
A: 9.67 u/L

Q: What about the PHOSPHORUS [3] of the same molecule?
A: 10.7 mg/dL

Q: And the POTASSIUM [3]?
A: 6.12 MEQ/L

Q: What about the SODIUM [3] of the same molecule?
A: 144.2 MEQ/L

Q: What about the “TOTAL BILIRUBIN” value [3] of the same molecule?
A: 0.2 mg/dL

Q: And the “TOTAL PROTEIN” value [3]?
A: 6.07 G/DL

Q: And the “URIC ACID” value [3]?
A: 1.23 mg/dL
